Test results taken from ChEMBL document CHEMBL2390918, “Cinnamides as selective small-molecule inhibitors of a cellular model of breast cancer stem cells” (Bioorg Med Chem Lett, 2013).
Converted amounts (≈) assume the structure as drawn.

How the values were obtained:
[1] = Displacement of [3H]PDBu from phorbol ester receptor in ICR mouse brain after 60 mins
[2] = species: Mus musculus; assay: Displacement of [3H]PDBu from phorbol ester receptor in ICR mouse brain at 10 uM after 60 mins relative to control
[3] = biological target: B2 bradykinin receptor (Homo sapiens) (UniProt P30411); details: CHEM1, 10 uM
[4] = biological target: B1 bradykinin receptor (Homo sapiens) (UniProt P46663); assay: Displacement of [3H](Des-Arg10)-Kallidin from bradykinin B1 receptor in human IMR90 cells at 10 uM after 60 mins relative to control; assay type: cell-based; details: IMR-90
[5] = biological target: T1, Glutamate NMDA receptor (Rattus norvegicus) (UniProt P35439+Q00959+Q00960+Q00961+Q62645+Q8VHN2+Q9R1M7); details: Wistar, Cerebral cortex, 10 uM
[6] = biological target: Histamine H3 receptor (Homo sapiens) (UniProt Q9Y5N1); details: CHO-K1, 10 uM
[7] = system: IMR-32; assay: Displacement of [I125]Epibatidine from nAChR in human IMR32 cells at 10 uM after 60 mins relative to control; assay type: cell-based
[8] = biological target: Mu-type opioid receptor (Homo sapiens) (UniProt P35372); details: CHO-K1, 10 uM
[9] = system: CHO-K1; assay: Displacement of [125I]2-iodomelatonin from human recombinant melatonin receptor 1 expressed in CHOK1 cells at 10 uM after 3 hrs relative to control; assay type: cell-based
[10] = Displacement of [3H]Idazoxan from central-type imidazole receptor 2 imidazoline binding site in Wistar rat cerebral cortex after 30 mins; assay type: tissue-based
[11] = species: Rattus norvegicus; assay: Displacement of [3H]Idazoxan from central-type imidazole receptor 2 imidazoline binding site in Wistar rat cerebral cortex at 10 uM after 30 mins relative to control; assay type: tissue-based
[12] = Cytotoxicity against human CSC-like HMLE cells expressing shRNA and epithelial cadherin after 70 to 74 hrs by Cell Titer Glo assay; assay type: functional, cell-based
[13] = Cytotoxicity against human HMLE cells expressing shRNA and GFP after 70 to 74 hrs by Cell Titer Glo assay; assay type: cell-based
[14] = Chemical stability of the compound in PBS after 48 hrs at pH 7.4 by UPLC/MS analysis; assay type: physicochemical; details: read-out: Stability
[15] = Plasma protein binding in human; assay type: ADME, cell-free; details: read-out: PPB (converted)
[16] = Chemical stability of the compound after 48 hrs in presence of GSH; assay type: physicochemical; details: read-out: Stability
[17] = Metabolic stability in human plasma after 5 hrs; assay type: ADME, cell-free; details: read-out: Stability
[18] = Selectivity ratio of EC50 for human HMLE cells expressing shRNA and GFP to EC50 for human CSC-like HMLE cells expressing shRNA and epithelial cadherin; assay type: ADME, cell-based; details: read-out: Ratio EC50
[19] = Solubility in PBS at 100 uM after 24 hrs at pH 7.4 by UPLC-MS analysis; assay type: physicochemical
[20] = Chemical stability in DMSO after 48 hrs; assay type: physicochemical; details: read-out: Stability
[21] = biological target: Cysteinyl leukotriene receptor 1 (Homo sapiens) (UniProt Q9Y271); details: CHO-K1, 10 uM
[22] = biological target: Gamma-aminobutyric acid type B receptor subunit 1 (Homo sapiens) (UniProt Q9UBS5); assay: Displacement of [3H]CGP54626 from human recombinant GABAB1A receptor expressed in CHO cells at 10 uM after 3 hrs relative to control; assay type: cell-based
[23] = biological target: Neuropeptide Y receptor type 2 (Homo sapiens, UniProt P49146); assay: Displacement of [125I]Peptide YY from neuropeptide Y receptor type 2 in human KAN-TS cells after 2 hrs; assay type: cell-based
[24] = biological target: Neuropeptide Y receptor type 2 (Homo sapiens) (UniProt P49146); assay: Displacement of [125I]Peptide-YY from neuropeptide Y receptor type 2 in human KAN-TS cells at 10 uM after 2 hrs relative to control; assay type: cell-based
[25] = biological target: Histamine H2 receptor (Homo sapiens) (UniProt P25021); assay: Displacement of [125I]Aminopotentidine from human recombinant histamine H2 receptor expressed in CHOK1 cells at 10 uM after 2 hrs relative to control; assay type: cell-based; details: CHO-K1
[26] = species: Rattus norvegicus; assay: Displacement of [3H]Kainic acid from kainate receptor in Wistar rat brain at 10 uM after 60 mins relative to control
[27] = biological target: T1, Glutamate NMDA receptor (Rattus norvegicus); details: Wistar, Cerebral cortex, 10 uM; remark: listed apart in the source
[28] = Displacement of [3H]Nitrendipine from L-type calcium channel dihydropyridine binding site in Wistar rat cerebral cortex after 90 mins; assay type: tissue-based
[29] = species: Rattus norvegicus; assay: Displacement of [3H]Nitrendipine from L-type calcium channel dihydropyridine binding site in Wistar rat cerebral cortex at 10 uM after 90 mins relative to control; assay type: tissue-based
[30] = biological target: Adenosine receptor A3 (Homo sapiens) (UniProt P0DMS8); details: CHO-K1, 10 uM
[31] = biological target: Delta-type opioid receptor (Homo sapiens) (UniProt P41143); details: HEK293, 10 uM
[32] = biological target: D(2) dopamine receptor (Homo sapiens) (UniProt P14416); details: CHO, 10 uM
[33] = biological target: D(4) dopamine receptor (Homo sapiens) (UniProt P21917); details: CHO-K1, 10 uM
[34] = species: Rattus norvegicus; assay: Displacement of [125I]omega-Conotoxin GVIA from N-type calcium channel in Wistar rat frontal brain at 10 uM after 30 mins relative to control
[35] = Displacement of [125I]omega-Conotoxin GVIA from N-type calcium channel in Wistar rat frontal brain after 30 mins
[36] = biological target: Muscarinic acetylcholine receptor M2 (Homo sapiens) (UniProt P08172); details: CHO-K1, 10 uM
[37] = biological target: Muscarinic acetylcholine receptor M3 (Homo sapiens) (UniProt P20309); details: CHO-K1, 10 uM
[38] = biological target: Muscarinic acetylcholine receptor M1 (Homo sapiens) (UniProt P11229); assay: Displacement of [3H]N-methylscopolamine from human recombinant muscarinic M1 receptor expressed in CHOK1 cells at 10 uM after 2 hrs relative to control; assay type: cell-based; details: CHO-K1
[39] = biological target: Muscarinic acetylcholine receptor M1 (Homo sapiens, UniProt P11229); assay: Displacement of [3H]N-methylscopolamine from human recombinant muscarinic M1 receptor expressed in CHOK1 cells after 2 hrs; assay type: cell-based, CHO-K1
[40] = biological target: Adenosine receptor A1 (Homo sapiens) (UniProt P30542); details: CHO, 10 uM
[41] = biological target: Glutamate NMDA receptor; assay: Displacement of [3H]MDL105519 from NMDA receptor glycine binding site in Wistar rat cerebral cortex after 30 mins; assay type: tissue-based
[42] = biological target: T1, Glutamate NMDA receptor (Rattus norvegicus); assay: Displacement of [3H]MDL105519 from NMDA receptor glycine binding site in Wistar rat cerebral cortex at 10 uM after 30 mins relative to control; assay type: tissue-based

Neuropeptide Y receptor type 2, sequence (P49146 whole entry): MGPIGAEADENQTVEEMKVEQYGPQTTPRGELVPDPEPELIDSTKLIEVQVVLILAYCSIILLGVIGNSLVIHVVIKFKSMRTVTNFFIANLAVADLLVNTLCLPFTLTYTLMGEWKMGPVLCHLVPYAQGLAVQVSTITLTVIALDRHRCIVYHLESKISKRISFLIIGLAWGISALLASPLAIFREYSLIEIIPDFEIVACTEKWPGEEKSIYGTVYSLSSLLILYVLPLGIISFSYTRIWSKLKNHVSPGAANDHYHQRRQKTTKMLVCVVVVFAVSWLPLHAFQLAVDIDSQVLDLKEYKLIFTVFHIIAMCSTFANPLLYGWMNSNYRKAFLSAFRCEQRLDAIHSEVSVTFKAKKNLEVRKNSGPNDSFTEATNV
Adenosine receptor A3 (Homo sapiens), sequence (P0DMS8 whole entry): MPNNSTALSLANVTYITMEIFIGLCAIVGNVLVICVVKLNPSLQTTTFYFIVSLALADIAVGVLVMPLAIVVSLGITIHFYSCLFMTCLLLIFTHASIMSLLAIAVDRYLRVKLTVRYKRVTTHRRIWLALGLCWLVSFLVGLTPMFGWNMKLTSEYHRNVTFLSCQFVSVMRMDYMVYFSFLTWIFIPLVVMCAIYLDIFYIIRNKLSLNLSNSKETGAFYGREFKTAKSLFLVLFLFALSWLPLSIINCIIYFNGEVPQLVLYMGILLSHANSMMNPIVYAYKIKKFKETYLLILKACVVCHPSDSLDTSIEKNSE
Muscarinic acetylcholine receptor M1 (Homo sapiens), sequence (P11229 whole entry): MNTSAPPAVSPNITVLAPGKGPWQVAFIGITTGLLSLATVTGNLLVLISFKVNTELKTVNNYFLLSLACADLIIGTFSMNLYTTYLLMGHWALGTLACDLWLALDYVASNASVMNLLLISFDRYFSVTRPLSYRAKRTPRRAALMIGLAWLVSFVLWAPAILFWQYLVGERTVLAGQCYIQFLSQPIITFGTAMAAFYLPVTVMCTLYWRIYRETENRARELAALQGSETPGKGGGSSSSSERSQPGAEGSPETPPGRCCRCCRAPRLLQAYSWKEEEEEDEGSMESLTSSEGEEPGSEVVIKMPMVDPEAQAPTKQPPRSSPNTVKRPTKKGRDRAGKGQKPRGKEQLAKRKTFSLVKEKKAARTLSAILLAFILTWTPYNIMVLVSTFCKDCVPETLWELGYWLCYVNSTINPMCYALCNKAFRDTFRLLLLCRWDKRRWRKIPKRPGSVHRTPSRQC
Muscarinic acetylcholine receptor M1, sequence (P11229 whole entry): as above
Adenosine receptor A1 (Homo sapiens), sequence (P30542 whole entry): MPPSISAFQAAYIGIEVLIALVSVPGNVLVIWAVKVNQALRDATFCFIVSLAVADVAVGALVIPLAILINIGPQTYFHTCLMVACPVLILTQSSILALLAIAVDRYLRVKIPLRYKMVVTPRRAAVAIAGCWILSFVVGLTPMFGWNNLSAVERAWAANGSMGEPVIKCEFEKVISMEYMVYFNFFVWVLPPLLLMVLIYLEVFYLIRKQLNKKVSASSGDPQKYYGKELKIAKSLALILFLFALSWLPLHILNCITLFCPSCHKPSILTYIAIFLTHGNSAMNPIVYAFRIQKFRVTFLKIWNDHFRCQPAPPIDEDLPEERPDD
Mu-type opioid receptor (Homo sapiens), sequence (P35372 whole entry): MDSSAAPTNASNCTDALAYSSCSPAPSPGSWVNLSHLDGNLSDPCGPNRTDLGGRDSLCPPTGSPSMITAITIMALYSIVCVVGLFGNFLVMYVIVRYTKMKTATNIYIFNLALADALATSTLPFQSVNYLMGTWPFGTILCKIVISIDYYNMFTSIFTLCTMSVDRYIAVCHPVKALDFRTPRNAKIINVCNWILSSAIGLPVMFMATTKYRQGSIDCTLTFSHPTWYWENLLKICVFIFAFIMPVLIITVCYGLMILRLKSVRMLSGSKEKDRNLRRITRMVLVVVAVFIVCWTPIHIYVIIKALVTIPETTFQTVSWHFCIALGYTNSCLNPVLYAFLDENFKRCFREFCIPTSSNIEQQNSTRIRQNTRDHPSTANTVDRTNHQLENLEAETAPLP
Delta-type opioid receptor (Homo sapiens), sequence (P41143 whole entry): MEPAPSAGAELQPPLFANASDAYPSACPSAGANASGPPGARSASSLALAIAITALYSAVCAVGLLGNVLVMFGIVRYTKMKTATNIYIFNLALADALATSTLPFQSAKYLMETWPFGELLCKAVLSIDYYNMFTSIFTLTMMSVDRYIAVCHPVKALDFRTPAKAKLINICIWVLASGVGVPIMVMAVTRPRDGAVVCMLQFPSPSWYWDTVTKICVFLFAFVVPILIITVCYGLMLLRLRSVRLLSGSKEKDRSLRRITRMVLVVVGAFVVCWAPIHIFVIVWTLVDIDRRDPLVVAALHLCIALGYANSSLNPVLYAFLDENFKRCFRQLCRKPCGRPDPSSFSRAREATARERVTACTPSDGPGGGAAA
Gamma-aminobutyric acid type B receptor subunit 1 (Homo sapiens), sequence (Q9UBS5 whole entry): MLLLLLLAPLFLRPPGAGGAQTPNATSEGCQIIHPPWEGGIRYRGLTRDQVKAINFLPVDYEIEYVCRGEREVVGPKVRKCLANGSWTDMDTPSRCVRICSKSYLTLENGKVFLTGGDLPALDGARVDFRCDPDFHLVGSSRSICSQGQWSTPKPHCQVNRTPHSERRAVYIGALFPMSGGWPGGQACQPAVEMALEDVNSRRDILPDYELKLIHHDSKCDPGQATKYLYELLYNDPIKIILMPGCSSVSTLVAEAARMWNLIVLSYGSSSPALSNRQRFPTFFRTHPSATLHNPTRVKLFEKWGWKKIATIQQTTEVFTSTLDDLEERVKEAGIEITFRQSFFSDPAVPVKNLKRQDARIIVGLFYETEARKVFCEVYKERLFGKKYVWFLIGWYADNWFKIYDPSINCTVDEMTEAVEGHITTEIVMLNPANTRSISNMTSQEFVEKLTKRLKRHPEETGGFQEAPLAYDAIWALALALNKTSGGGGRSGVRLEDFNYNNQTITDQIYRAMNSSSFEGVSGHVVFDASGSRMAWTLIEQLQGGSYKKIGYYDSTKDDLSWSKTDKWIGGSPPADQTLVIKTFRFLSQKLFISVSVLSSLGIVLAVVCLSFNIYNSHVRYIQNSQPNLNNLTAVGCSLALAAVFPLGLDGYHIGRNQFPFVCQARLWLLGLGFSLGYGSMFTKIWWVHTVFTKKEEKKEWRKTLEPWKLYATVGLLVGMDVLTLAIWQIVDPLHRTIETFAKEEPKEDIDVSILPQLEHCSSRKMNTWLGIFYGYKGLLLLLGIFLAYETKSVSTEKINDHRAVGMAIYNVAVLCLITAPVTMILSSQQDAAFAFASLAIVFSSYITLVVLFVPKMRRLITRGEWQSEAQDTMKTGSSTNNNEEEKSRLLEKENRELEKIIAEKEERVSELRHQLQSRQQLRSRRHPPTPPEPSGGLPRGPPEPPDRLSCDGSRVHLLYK
D(4) dopamine receptor (Homo sapiens), sequence (P21917 whole entry): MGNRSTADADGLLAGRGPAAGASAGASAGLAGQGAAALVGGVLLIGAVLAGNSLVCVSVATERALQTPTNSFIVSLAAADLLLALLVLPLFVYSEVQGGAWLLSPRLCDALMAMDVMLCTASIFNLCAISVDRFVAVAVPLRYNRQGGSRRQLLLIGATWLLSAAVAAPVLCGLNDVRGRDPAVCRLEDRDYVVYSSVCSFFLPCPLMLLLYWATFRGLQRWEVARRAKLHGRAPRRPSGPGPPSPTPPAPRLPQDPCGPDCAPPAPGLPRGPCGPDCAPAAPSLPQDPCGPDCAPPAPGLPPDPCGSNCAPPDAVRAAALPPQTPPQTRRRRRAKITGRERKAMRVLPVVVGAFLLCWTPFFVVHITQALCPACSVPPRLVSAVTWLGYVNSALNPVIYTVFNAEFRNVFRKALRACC
Neuropeptide Y receptor type 2 (Homo sapiens), sequence (P49146 whole entry): as the sequence (P49146 whole entry) above
Muscarinic acetylcholine receptor M3 (Homo sapiens), sequence (P20309 whole entry, looked up): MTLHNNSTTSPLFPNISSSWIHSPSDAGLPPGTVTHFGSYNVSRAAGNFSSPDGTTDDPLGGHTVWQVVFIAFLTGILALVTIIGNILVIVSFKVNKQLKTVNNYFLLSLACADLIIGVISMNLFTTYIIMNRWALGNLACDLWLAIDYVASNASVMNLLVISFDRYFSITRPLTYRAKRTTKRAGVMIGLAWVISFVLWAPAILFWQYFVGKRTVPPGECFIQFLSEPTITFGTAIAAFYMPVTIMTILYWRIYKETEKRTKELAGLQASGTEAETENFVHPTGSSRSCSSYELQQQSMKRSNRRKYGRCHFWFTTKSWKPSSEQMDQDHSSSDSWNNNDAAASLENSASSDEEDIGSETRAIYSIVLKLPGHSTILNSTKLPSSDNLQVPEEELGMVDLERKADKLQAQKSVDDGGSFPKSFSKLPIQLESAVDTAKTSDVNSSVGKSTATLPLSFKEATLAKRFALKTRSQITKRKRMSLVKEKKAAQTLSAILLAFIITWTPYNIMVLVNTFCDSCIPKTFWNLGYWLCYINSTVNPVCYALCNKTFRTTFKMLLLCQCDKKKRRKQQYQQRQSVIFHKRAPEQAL
Histamine H2 receptor (Homo sapiens), sequence (P25021 whole entry): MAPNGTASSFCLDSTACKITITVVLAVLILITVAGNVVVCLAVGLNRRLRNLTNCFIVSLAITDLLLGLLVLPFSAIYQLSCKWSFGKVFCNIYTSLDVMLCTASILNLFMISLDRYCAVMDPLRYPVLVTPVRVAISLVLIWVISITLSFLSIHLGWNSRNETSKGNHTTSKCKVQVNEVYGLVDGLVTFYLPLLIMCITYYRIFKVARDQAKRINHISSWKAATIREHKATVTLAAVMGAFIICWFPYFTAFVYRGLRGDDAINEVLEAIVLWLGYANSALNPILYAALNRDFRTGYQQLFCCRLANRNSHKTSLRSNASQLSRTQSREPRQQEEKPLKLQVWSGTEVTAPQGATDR

CCCCCCCCCCCCCC(=O)O[C@@H]1[C@@H](C)[C@@]2(O)[C@@H](C=C(CO)C[C@]3(O)C(=O)C(C)=C[C@@H]23)[C@@H]2C(C)(C)[C@]12OC(C)=O [PHORBOL MYRISTATE ACETATE]
IC50 [1]: 0.79 nM
Ki [1]: 0.59 nM
inhibition [2]: -1%

H-RPPGFSPFR-OH
inhibition [3]: 4%

NCCCC[C@H](N)C(=O)N[C@@H](CCCN=C(N)N)C(=O)N1CCC[C@H]1C(=O)N1CCC[C@H]1C(=O)NCC(=O)N[C@@H](Cc1ccccc1)C(=O)N[C@@H](CO)C(=O)N1CCC[C@H]1C(=O)N[C@@H](Cc1ccccc1)C(=O)O
inhibition [4]: 8%

C[C@@]12NC(Cc3ccccc31)c1ccccc12
inhibition [5]: 1%

C[C@@H](N)Cc1c[nH]cn1
inhibition [6]: 6%

Clc1ccc(C2CC3CCC2N3)cn1 (stereo not drawn)
inhibition [7]: 12%

C[C@@H](NC(=O)[C@@H](N)Cc1ccc(O)cc1)C(=O)NCC(=O)N(C)[C@@H](Cc1ccccc1)C(=O)NCCO
inhibition [8]: 4%

COc1ccc2[nH]cc(CCNC(C)=O)c2c1
inhibition [9]: 11%

c1ccc2c(c1)OCC(C1=NCCN1)O2 (stereo not drawn) [IDAZOXAN]
IC50 [10]: 12 nM
Ki [10]: 8 nM
inhibition [11]: 11%

CCc1ccc(/C=C/C(=O)NC2=NCCS2)cc1
EC50 [12]: 2000 nM
EC50 [13]: 64000 nM
remaining at 48 h [14]: 75%
fraction unbound [15]: 0.034
remaining at 48 h [16]: 82%
remaining at 5 h [17]: 97.1%
selectivity ratio [18]: 32
solubility at 24 h, 100 µM [19]: 11.5 µM (≈ 2.99 µg/mL)
remaining at 48 h [20]: > 75%

CCCCC/C=C\C\C=C/C=C/C=C/[C@@H](SC[C@H](N)C(=O)NCC(=O)O)[C@@H](O)CCCC(=O)O
inhibition [21]: -10%

C[C@H](NC[C@H](O)CP(=O)(O)CC1CCCCC1)c1ccc(Cl)c(Cl)c1
inhibition [22]: 1%

H-PAEDLARYYSALRHYITRRQRY-NH2
IC50 [23]: 0.21 nM
Ki [23]: 0.12 nM
inhibition [24]: 6%

C/N=C(/NC#N)NCCSCc1csc(NC(=N)N)n1
inhibition [25]: 11%

N[C@@H](CCC(=O)O)C(=O)O
inhibition [26]: 0%
inhibition [27]: 10%

CCOC(=O)C1=C(C)NC(C)=C(C(=O)OC)C1c1cccc([N+](=O)[O-])c1 (stereo not drawn) [NITRENDIPINE]
IC50 [28]: 0.72 nM
Ki [28]: 0.46 nM
inhibition [29]: -6%

CNC(=O)[C@H]1O[C@@H](n2cnc3c(NCc4cccc(I)c4)ncnc32)[C@H](O)[C@@H]1O
inhibition [30]: 22%

Oc1ccc2c3c1O[C@H]1c4[nH]c5ccccc5c4C[C@@]4(O)[C@@H](C2)N(CC2CC2)CC[C@]314
inhibition [31]: 18%

O=C(CCCN1CCC2(CC1)C(=O)NCN2c1ccccc1)c1ccc(F)cc1
inhibition [32]: -3%
inhibition [33]: -3%

C[C@@H](O)[C@@H]1NC(=O)[C@H](Cc2ccc(O)cc2)NC(=O)[C@@H]2C[C@@H](O)CN2C(=O)[C@H](CC(N)=O)NC(=O)[C@@H]2CSSC[C@@H]3NC(=O)[C@H](CO)NC(=O)[C@H](CO)NC(=O)CNC(=O)[C@@H]4C[C@@H](O)CN4C(=O)[C@H](CO)NC(=O)[C@H](CCCCN)NC(=O)[C@@H](N)CSSC[C@H](NC(=O)[C@H](CSSC[C@@H](C(=O)N[C@@H](Cc4ccc(O)cc4)C(N)=O)NC(=O)[C@H](CCCNC(=N)N)NC(=O)[C@H](CCCCN)NC1=O)NC(=O)[C@H](CC(N)=O)NC(=O)[C@H](Cc1ccc(O)cc1)NC(=O)[C@H](CO)NC(=O)[C@H]([C@@H](C)O)NC(=O)[C@@H]1C[C@@H](O)CN1C(=O)[C@H](CO)NC3=O)C(=O)N[C@@H](CCCNC(=N)N)C(=O)N[C@@H](CO)C(=O)N2
inhibition [34]: 14%
IC50 [35]: 0.034 nM
Ki [35]: 0.028 nM

C[N+]1(C)CCC(OC(=O)C(c2ccccc2)c2ccccc2)CC1 [4-DAMP]
inhibition [36]: -2%
inhibition [37]: -4%
inhibition [38]: 5%
IC50 [39]: 4.5 nM

C[C@H](Cc1ccccc1)Nc1ncnc2c1ncn2[C@@H]1O[C@H](CO)[C@@H](O)[C@H]1O
inhibition [40]: 25%

O=C(O)/C(=C/c1c(C(=O)O)[nH]c2cc(Cl)cc(Cl)c12)c1ccccc1
IC50 [41]: 22 nM
Ki [41]: 21 nM
inhibition [42]: -3%
